Assay results published in the CheMixHub viscosity set.

Test: xn = mol fraction of the nth substance listed

CCNc1ccccc1 + CCCCCCO
viscosity [mPa·s], 101 kPa
Conditions | 303.15 K | 308.15 K | 313.15 K
x1 = 0.0815 | 3.513 | 3.35 | 3.189
x1 = 0.1812 | 3.243 | 3.069 | 2.9
x1 = 0.2501 | 3.07 | 2.889 | 2.719
x1 = 0.3121 | 2.922 | 2.736 | 2.565
x1 = 0.3956 | 2.737 | 2.546 | 2.374
x1 = 0.4652 | 2.594 | 2.399 | 2.227
x1 = 0.5285 | 2.47 | 2.273 | 2.101
x1 = 0.6124 | 2.318 | 2.119 | 1.947
x1 = 0.6758 | 2.21 | 2.01 | 1.84
x1 = 0.7415 | 2.105 | 1.904 | 1.735
x1 = 0.8012 | 2.014 | 1.813 | 1.647
x1 = 0.8652 | 1.922 | 1.722 | 1.557
x1 = 0.9114 | 1.857 | 1.659 | 1.496

C[Si]1(C)O[Si](C)(C)O[Si](C)(C)O[Si](C)(C)O1 + ClC(Cl)(Cl)Cl
101 kPa
Conditions | viscosity [mPa·s]
298.15 K, x1 = 0.1089 | 1.044
298.15 K, x1 = 0.1965 | 1.14
298.15 K, x1 = 0.289 | 1.245
298.15 K, x1 = 0.4288 | 1.407
298.15 K, x1 = 0.5841 | 1.595
298.15 K, x1 = 0.659 | 1.694
298.15 K, x1 = 0.8443 | 1.95
298.15 K, x1 = 0.9264 | 2.073
298.15 K, x1 = 0.9773 | 2.147
308.15 K, x1 = 0.1756 | 0.964
308.15 K, x1 = 0.3239 | 1.101
308.15 K, x1 = 0.5732 | 1.339
308.15 K, x1 = 0.729 | 1.493
308.15 K, x1 = 0.8636 | 1.646
308.15 K, x2 = 0.0183 | 1.786
318.15 K, x1 = 0.1779 | 0.844
318.15 K, x1 = 0.3249 | 0.956
318.15 K, x1 = 0.5816 | 1.148
318.15 K, x1 = 0.7307 | 1.27
318.15 K, x1 = 0.8652 | 1.388
318.15 K, x2 = 0.0179 | 1.498

ClCCCl + CCCCCCO
303.15 K, 101 kPa
Conditions | viscosity [mPa·s]
x1 = 0.1515 | 2.572
x1 = 0.302 | 1.864
x1 = 0.5095 | 1.235
x1 = 0.6031 | 1.047
x1 = 0.7397 | 0.9
x1 = 0.9017 | 0.73

ClCCl + COCCOCCOCCOCCOC
298.15 K, 101 kPa
Conditions | viscosity [mPa·s]
x2 = 0.017 | 0.459
x2 = 0.0332 | 0.51
x2 = 0.0557 | 0.586
x2 = 0.0844 | 0.681
x2 = 0.1417 | 0.909
x2 = 0.1831 | 1.075
x2 = 0.236 | 1.294
x2 = 0.2842 | 1.492
x2 = 0.292 | 1.519
x2 = 0.3401 | 1.699
x2 = 0.38 | 1.848
x2 = 0.4698 | 2.155
x2 = 0.5134 | 2.334
x2 = 0.6018 | 2.651
x2 = 0.6882 | 2.749
x2 = 0.7367 | 2.865
x2 = 0.8029 | 2.981
x2 = 0.8758 | 3.111
x2 = 0.9066 | 3.17
x2 = 0.9339 | 3.239

ClCCl + Cc1ccccc1
101 kPa
Conditions | viscosity [mPa·s]
293.15 K, x1 = 0.1635 | 0.564
293.15 K, x1 = 0.3002 | 0.543
293.15 K, x1 = 0.4025 | 0.528
293.15 K, x1 = 0.4771 | 0.517
293.15 K, x1 = 0.5025 | 0.511
293.15 K, x1 = 0.5801 | 0.498
293.15 K, x1 = 0.5919 | 0.496
293.15 K, x1 = 0.675 | 0.479
293.15 K, x1 = 0.7431 | 0.468
293.15 K, x1 = 0.788 | 0.465
298.15 K, x1 = 0.2198 | 0.525
298.15 K, x1 = 0.3271 | 0.51
298.15 K, x1 = 0.4201 | 0.497
298.15 K, x1 = 0.5108 | 0.48
298.15 K, x1 = 0.5701 | 0.472
298.15 K, x1 = 0.6325 | 0.462
298.15 K, x1 = 0.6841 | 0.455
298.15 K, x1 = 0.7201 | 0.45
298.15 K, x1 = 0.7501 | 0.447
303.15 K, x1 = 0.218 | 0.497
303.15 K, x1 = 0.3331 | 0.481
303.15 K, x1 = 0.4402 | 0.467
303.15 K, x1 = 0.5223 | 0.45
303.15 K, x1 = 0.6191 | 0.436
303.15 K, x1 = 0.694 | 0.424
303.15 K, x1 = 0.7651 | 0.415
303.15 K, x1 = 0.8053 | 0.412

CCNc1ccccc1 + CCC(=O)c1ccccc1
303.15 K, 100 kPa
Conditions | viscosity [mPa·s]
x1 = 0.0789 | 1.524
x1 = 0.1541 | 1.537
x1 = 0.2249 | 1.55
x1 = 0.3002 | 1.565
x1 = 0.3862 | 1.581
x1 = 0.4651 | 1.598
x1 = 0.5244 | 1.612
x1 = 0.6049 | 1.631
x1 = 0.6891 | 1.653
x1 = 0.7354 | 1.666
x1 = 0.8005 | 1.683
x1 = 0.8523 | 1.699
x1 = 0.9099 | 1.716
